Reference: patent US20050214394A1, “Hippophae rhamnoides compositions for cancer therapy” (priority 2003, published 2005)

Key:
[1] = biological target: T1, COX-2 (Homo sapiens, UniProt P35354); experiment: COX-2 ELISA assay kit (PGHS-2 converting arachidonic acid to prostaglandins)
T1 sequence (P35354 18-604): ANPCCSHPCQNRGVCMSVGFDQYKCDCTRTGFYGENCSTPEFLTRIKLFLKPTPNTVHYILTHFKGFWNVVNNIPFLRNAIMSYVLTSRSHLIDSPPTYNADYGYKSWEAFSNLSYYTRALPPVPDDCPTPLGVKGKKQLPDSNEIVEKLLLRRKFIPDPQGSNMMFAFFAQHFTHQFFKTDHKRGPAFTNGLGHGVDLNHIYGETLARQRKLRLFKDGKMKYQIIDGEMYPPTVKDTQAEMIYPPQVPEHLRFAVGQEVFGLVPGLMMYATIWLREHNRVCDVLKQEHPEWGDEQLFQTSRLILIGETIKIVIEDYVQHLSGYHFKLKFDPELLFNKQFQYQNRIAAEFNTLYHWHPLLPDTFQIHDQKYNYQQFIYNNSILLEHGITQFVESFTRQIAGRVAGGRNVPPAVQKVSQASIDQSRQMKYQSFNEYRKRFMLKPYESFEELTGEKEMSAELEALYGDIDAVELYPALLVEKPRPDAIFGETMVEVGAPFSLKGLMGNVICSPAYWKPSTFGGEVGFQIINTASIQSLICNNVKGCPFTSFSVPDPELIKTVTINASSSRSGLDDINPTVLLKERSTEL
Experimental: The anti-inflammatory assays for COX-2 inhibitory activity were conducted using prostaglandin endoperoxide H synthase-1 and -2 isozymes (PGHS-1, and -2) based on their ability to convert arachidonic acid to prostaglandins (PGs).
Inhibition was measured by COX-1 and COX-2 ELISA assay kits (Cayman Chemical Co., Ann Arbor, Mich.).

[2] = biological target: T2, COX-1 (Ovis aries, UniProt P05979); experiment: COX-1 ELISA assay kit (PGHS-1 converting arachidonic acid to prostaglandins); conditions: commercial anti-inflammatory drug (positive control); concentration not given
T2 sequence (P05979 25-600): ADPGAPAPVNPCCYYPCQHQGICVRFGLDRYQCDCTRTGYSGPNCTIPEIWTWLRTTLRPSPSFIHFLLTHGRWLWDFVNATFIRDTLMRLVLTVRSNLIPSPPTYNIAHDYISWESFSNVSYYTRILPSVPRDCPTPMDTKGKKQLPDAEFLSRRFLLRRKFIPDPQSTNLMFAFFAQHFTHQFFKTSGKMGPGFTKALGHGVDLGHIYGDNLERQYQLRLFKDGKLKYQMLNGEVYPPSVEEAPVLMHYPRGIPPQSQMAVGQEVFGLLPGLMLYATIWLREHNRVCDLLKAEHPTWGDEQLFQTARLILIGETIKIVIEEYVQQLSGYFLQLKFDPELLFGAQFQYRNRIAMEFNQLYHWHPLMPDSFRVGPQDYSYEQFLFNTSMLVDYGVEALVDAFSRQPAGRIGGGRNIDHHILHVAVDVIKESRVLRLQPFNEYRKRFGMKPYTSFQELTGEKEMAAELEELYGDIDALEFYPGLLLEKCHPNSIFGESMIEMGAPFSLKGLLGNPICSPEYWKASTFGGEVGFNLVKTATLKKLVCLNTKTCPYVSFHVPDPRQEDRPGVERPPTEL

**Q.** `CC(=O)Oc1ccccc1C(=O)O` [aspirin] was tested. Which “inhibition of COX-2” value [1] did it give?
**A.** Its value is 42%.

**Q.** What about the “inhibition of COX-1” value [2] of the same compound?
**A.** Its value is 58%.
